Results from patent US20250051338A1, “TYK2 DEGRADERS AND USES THEREOF” (Kymera Therapeutics, Inc., priority 2021, published 2025).

Key:
Type in all cases: cell-based
[1] = biological target: T1, TYK2 (Homo sapiens, UniProt P29597); test: TYK2 degradation MSD assay in EBV-B cells; set-up: endogenous in cells; host or cells: EBV-B cells; settings: 4 to 24 hours incubation, read-out: TYK2 MSD DC50 rating in EBV-B
Summary of the method: (§1)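 Compound-driven TYK2 loss is measured with a Meso Scale Discovery sandwich assay on whole-cell lysates. Cells are incubated 4 to 24 hours at 37° C with nine 1:3-diluted doses topping at 1 to 10 μM, and DC50 values derive from four-parameter curve fitting.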

[2] = biological target: T1, TYK2; test: TYK2 degradation MSD assay in human PBMC cells; set-up: endogenous in cells; host or cells: human PBMC; settings: 4 to 24 hours incubation, read-out: TYK2 MSD DC50 rating in human PBMC
Summary of the method: as §1

[3] = biological target: T1, TYK2; test: TYK2 degradation MSD assay in OCI-LY10 cells; set-up: endogenous in cells; host or cells: EBV-B cells; settings: 4 to 24 hours incubation, read-out: TYK2 MSD DC50 rating in OCI-LY10
Summary of the method: as §1

T1 sequence (P29597 whole entry): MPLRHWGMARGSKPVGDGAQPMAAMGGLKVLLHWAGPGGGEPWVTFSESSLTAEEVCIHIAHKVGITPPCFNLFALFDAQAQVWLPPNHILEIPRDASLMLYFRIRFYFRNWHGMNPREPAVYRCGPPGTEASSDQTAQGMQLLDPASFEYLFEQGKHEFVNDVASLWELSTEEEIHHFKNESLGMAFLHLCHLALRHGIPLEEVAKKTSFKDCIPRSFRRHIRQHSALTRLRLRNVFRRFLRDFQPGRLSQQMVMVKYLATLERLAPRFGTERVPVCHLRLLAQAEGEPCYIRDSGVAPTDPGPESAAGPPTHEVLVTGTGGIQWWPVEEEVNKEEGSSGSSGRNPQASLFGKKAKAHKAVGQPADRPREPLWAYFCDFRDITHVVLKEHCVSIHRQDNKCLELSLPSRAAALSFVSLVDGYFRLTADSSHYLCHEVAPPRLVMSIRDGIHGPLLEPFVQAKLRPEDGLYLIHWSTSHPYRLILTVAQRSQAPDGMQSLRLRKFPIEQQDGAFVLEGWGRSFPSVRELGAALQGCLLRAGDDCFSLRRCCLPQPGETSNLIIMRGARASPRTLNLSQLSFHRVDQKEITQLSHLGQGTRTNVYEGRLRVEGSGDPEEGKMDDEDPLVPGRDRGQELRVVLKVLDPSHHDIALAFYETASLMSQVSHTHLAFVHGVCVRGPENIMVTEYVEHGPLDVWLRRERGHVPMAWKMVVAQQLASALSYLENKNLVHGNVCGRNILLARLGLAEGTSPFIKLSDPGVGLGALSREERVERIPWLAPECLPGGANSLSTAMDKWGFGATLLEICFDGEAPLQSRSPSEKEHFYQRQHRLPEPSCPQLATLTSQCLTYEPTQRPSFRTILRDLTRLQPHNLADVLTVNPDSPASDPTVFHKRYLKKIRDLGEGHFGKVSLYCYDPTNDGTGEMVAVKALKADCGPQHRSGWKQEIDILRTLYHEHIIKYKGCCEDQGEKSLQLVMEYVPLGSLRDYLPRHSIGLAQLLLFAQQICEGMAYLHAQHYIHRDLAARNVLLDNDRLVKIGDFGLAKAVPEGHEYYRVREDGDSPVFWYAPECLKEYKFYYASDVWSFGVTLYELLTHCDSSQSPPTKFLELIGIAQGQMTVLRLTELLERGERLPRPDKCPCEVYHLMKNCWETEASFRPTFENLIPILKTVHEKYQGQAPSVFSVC

Row | SMILES | DC50 [1] [nM] | DC50 [2] [nM] | DC50 [3] [nM]
1 | CNc1cc(Nc2cccn(-c3ccc(C(=O)N4CCN([C@H]5CC[C@H](c6ccc(-c7ccc8c(c7)n(C)c(=O)n8C7CCC(=O)NC7=O)cc6)CC5)CC4)cn3)c2=O)nn2c(C(=O)N[C@@H]3C[C@@H]3F)cnc12 (stereo partly drawn) [Example K380] | < 1 | < 1 | < 1
2 | CNc1cc(Nc2cccn(-c3ccc(C(=O)N4CCC(N5CC(N6CCN(c7ccc8c(c7)n(C)c(=O)n8C7CCC(=O)NC7=O)CC6)C5)CC4)cn3)c2=O)nn2c(C(=O)N[C@@H]3C[C@@H]3F)cnc12 (stereo partly drawn) [Example K381] | < 1 | > 100 | < 1
3 | CNc1cc(Nc2cccn(-c3ccc(C(=O)NC4CCC(C(=O)N5CCC6(CN(CC#Cc7ccc8c(c7)n(C)c(=O)n8C7CCC(=O)NC7=O)C6)C5)CC4)cn3)c2=O)nn2c(C(=O)N[C@@H]3C[C@@H]3F)cnc12 (stereo partly drawn) [Example K384] | > 100 | > 100 | > 100
4 | CNc1cc(Nc2cccn(-c3ccc(C(=O)N4CCN(CCc5ccc6c(c5)n(C)c(=O)n6C5CCC(=O)NC5=O)CC4)cn3)c2=O)nn2c(C(=O)N[C@@H]3C[C@@H]3F)cnc12 (stereo partly drawn) [Example K386] | > 100 | < 1 | > 100
5 | CNc1cc(Nc2cccn(-c3ccc(C(=O)N(C)Cc4ccc(-c5ccc6c(c5)n(C)c(=O)n6C5CCC(=O)NC5=O)cn4)cn3)c2=O)nn2c(C(=O)N[C@@H]3C[C@@H]3F)cnc12 (stereo partly drawn) [Example K387] | > 100 | < 1 | > 100
6 | CNc1cc(Nc2cccn(-c3ccc(C(=O)N4CCC(CN(C)c5ccc6c(c5)n(C)c(=O)n6C5CCC(=O)NC5=O)CC4)cn3)c2=O)nn2c(C(=O)N[C@@H]3C[C@@H]3F)cnc12 (stereo partly drawn) [Example K390] | > 100 | < 1 | > 100
7 | CNc1cc(Nc2cccn(-c3ccc(C(=O)N4CCC5(CC4)CC(Cc4ccc6c(c4)n(C)c(=O)n6C4CCC(=O)NC4=O)C5)cn3)c2=O)nn2c(C(=O)N[C@@H]3C[C@@H]3F)cnc12 (stereo partly drawn) [Example K391] | < 1 | < 1 | > 100
8 | CNc1cc(Nc2cccn(-c3ccc(C(=O)N4CCC(OC5CC(c6ccc7c(c6)n(C)c(=O)n7C6CCC(=O)NC6=O)C5)CC4)cn3)c2=O)nn2c(C(=O)N[C@@H]3C[C@@H]3F)cnc12 (stereo partly drawn) [Example K393] | > 100 | < 1 | > 100

Now from value to compound:

Row | DC50 [1] [nM] | DC50 [2] [nM] | DC50 [3] [nM] | SMILES
9 | < 1 | > 100 | > 100 | CNc1cc(Nc2cccn(-c3ccc(C(=O)N4CC5(C4)CN(c4ncc(C#Cc6ccc7c(c6)n(C)c(=O)n7C6CCC(=O)NC6=O)cn4)C5)cn3)c2=O)nn2c(C(=O)NC3CC3F)cnc12 (stereo not drawn) [Example K382]
10 | < 1 | < 1 | > 100 | CNc1cc(Nc2cccn(-c3ccc(C(=O)N4CC5(CCN(c6ccc(-c7ccc8c(c7)n(C)c(=O)n8C7CCC(=O)NC7=O)cn6)CC5)C4)cn3)c2=O)nn2c(C(=O)N[C@@H]3C[C@@H]3F)cnc12 (stereo partly drawn) [Example K383]
11 | < 1 | < 1 | > 100 | CNc1cc(Nc2cccn(-c3ccc(C(=O)N4CCC(c5ncc(-c6ccc7c(c6)n(C)c(=O)n7C6CCC(=O)NC6=O)cn5)CC4)cn3)c2=O)nn2c(C(=O)N[C@@H]3C[C@@H]3F)cnc12 (stereo partly drawn) [Example K385]
12 | > 100 | > 100 | > 100 | CNc1cc(Nc2cccn(-c3ccc(C(=O)N4CC5(CCN(c6ccc7c(c6)n(C)c(=O)n7C6CCC(=O)NC6=O)CC5)C4)cn3)c2=O)nn2c(C(=O)N[C@@H]3C[C@@H]3F)cnc12 (stereo partly drawn) [Example K388]
13 | < 1 | < 1 | < 1 | CNc1cc(Nc2cccn(-c3ccc(C(=O)N4CC5(CCN(c6cccc7c6n(C)c(=O)n7C6CCC(=O)NC6=O)CC5)C4)cn3)c2=O)nn2c(C(=O)N[C@@H]3C[C@@H]3F)cnc12 (stereo partly drawn) [Example K389]
14 | > 100 | < 1 | > 100 | CNc1cc(Nc2cccn(-c3ccc(C(=O)N4CCC5(CC4)CCN(c4ccc6c(c4)n(C)c(=O)n6C4CCC(=O)NC4=O)C5)cn3)c2=O)nn2c(C(=O)N[C@@H]3C[C@@H]3F)cnc12 (stereo partly drawn) [Example K392]
